Source: patent US20170260178A1 (SPERO GYRASE, INC., priority 2012, published 2017)

What was measured:
S. aureus (ATCC 29213) = experiment: Bacterial assay: MIC against S. aureus; assay type: cell-based, Staphylococcus aureus; settings: Staphylococcus aureus, ATCC29213, read-out: minimal inhibitory concentration (MIC)
S. pyogenes (ATCC 51339) = experiment: Bacterial assay: MIC against S. pyogenes; assay type: cell-based, Streptococcus pyogenes; settings: Streptococcus pyogenes, ATCC51339, read-out: minimal inhibitory concentration (MIC)
[1] = test system: H. influenzae (ATCC 49247); experiment: Bacterial assay: MIC against H. influenzae; assay type: cell-based; settings: Haemophilus influenzae, ATCC49247; H. influenzae ATCC 49247; read-out: minimal inhibitory concentration (MIC)
S. aureus ATCC29213 = experiment: Rat thigh infection model; assay type: in vivo; settings: neutropenic Sprague-Dawley rats, IV ≦40 mg/kg
Method: The thighs of Sprague-Dawley rats (250-275 g), rendered neutropenic by the intraperitoneal administration of cyclophosphamide (75 mg/kg on days −4 and −1), were inoculated with approximately 1×10^7 cfus of S. aureus ATCC29213.
Compounds were administered as indicated 2 hours later and the cfus enumerated at various times post dosing by harvesting the thighs, homogenising in PBS on ice and plating serial dilutions onto CLED agar plates for growth at 37° C. and colony counting.

S. pneumoniae ATCC6301 [2] = experiment: Mouse lung infection model (Gram positive); assay type: in vivo; settings: CD-1 mice, IV 30 mg/kg, cfus at 48 hours post inoculation
Method: Anaesthetised female CD-1 mice (18-22 g) were inoculated intranasally with approximately 10^6 cfus of S. pneumoniae ATCC6301 prepared from a fresh overnight culture by placing 50 μl of inoculum on the nares and allowing the mice to inhale. Compounds were administered as indicated at 24 hours post inoculation and the cfus enumerated at 48 hours post inoculation by harvesting the lungs, homogenising in PBS on ice and plating serial dilutions onto TSA+5% blood plates for growth overnight at 37° C. and colony counting.

S. pneumoniae ATCC6301 [3] = experiment: Mouse survival model (lung infection); assay type: in vivo; settings: CD-1 mice, IV 10 mg/kg, at seven or nine days
Method: Anaesthetised female CD-1 mice (18-22 g) were inoculated intranasally with approximately 10^6 cfus of S. pneumoniae ATCC6301 prepared from a fresh overnight culture by placing 50 μl of inoculum on the nares and allowing the mice to inhale. Compounds are administered as indicated at 24, 48 and 72 hours post inoculation and the mice monitored for survival for seven or nine days after infection. […] Similarly, when Compound 17 was dosed IV at 30 mg/kg 90% of mice survived at day seven.

`CCNC(=O)Nc1nc2cc(-c3cnc(C(C)(C)O)nc3)cc(-c3ccccn3)c2s1` [Compound 1, 1-ethyl-3-[5-[2-(1-hydroxy-1-methyl-ethyl)pyrimidin-5-yl]-7-(2-pyridyl)-1,3-benzothiazol-2-yl]urea] showed an MIC (S. aureus (ATCC 29213)) of at most 1 µg/mL, an MIC (S. pyogenes (ATCC 51339)) of at most 1 µg/mL and an MIC [1] of at most 2 µg/mL. The “log drop in colony forming units compared to the control” value (S. aureus ATCC29213) was at least 3 log, the “log drop in colony forming units compared to the control” value (S. pneumoniae ATCC6301 [2]) was at least 3 log and the mice surviving (S. pneumoniae ATCC6301 [3]) was 80%.
